Test results as given in patent publication EP1025114B1, “3'-N-MODIFIED 6-O-SUBSTITUTED ERYTHROMYCIN KETOLIDE DERIVATIVES HAVING ANTIBACTERIAL ACTIVITY” (priority 1997, dated 1999).

Key:
Test in all cases: In vitro antibacterial activity, agar dilution MIC
Type in all cases: cell-based
[1] = system: Staphylococcus aureus CMX 553; details: Staphylococcus aureus CMX 553 (organism code FF); BHI agar, 35-37 °C, 20 to 24 hours; unit assumed
Procedure: (§1) Representative compounds of the present invention were assayed in vitro for antibacterial activity as follows: Twelve petri dishes containing successive aqueous dilutions of the test compound mixed with 10 mL of sterilized Brain Heart infusion (BHI) agar (Difco 0418-01-5) were prepared. Each plate was inoculated with 1:100 (or 1:10 for slow-growing strains, such as Micrococcus and Streptococcus) dilutions of up to 32 different microorganisms, using a Steers replicator block. […] In addition, a control plate, using BHI agar containing no test compound, was prepared and incubated at the beginning and end of each test.
(§2) An additional plate containing a compound having known susceptibility patterns for the organisms being tested and belonging to the same antibiotic class as the test compound was also prepared and incubated as a further control, as well as to provide test-to-test comparability.
(§3) After incubation, each plate was visually inspected. The minimum inhibitory concentration (MIC) was defined as the lowest concentration of drug yielding no growth, a slight haze, or sparsely isolated colonies on the inoculum spot as compared to the growth control.

[2] = system: Streptococcus pyogenes EES61; details: Streptococcus pyogenes EES61 (organism code LL); BHI agar, 35-37 °C, 20 to 24 hours; unit assumed
Procedure: as §1, §2, §3

Candida albicans CCH 442 = Candida albicans CCH 442 (organism code TT); BHI agar, 35-37 °C, 20 to 24 hours; unit assumed
Procedure: as §1, §2, §3

[3] = system: Streptococcus Pheumoniae ATCC6303; details: Streptococcus Pheumoniae ATCC6303 (organism code XX); BHI agar, 35-37 °C, 20 to 24 hours; unit assumed
Procedure: as §1, §2, §3

[4] = system: Staphylococcus aureus A-5278; details: Staphylococcus aureus A-5278 (organism code CC); BHI agar, 35-37 °C, 20 to 24 hours; unit assumed
Procedure: as §1, §2, §3

[5] = system: Micrococcus luteus ATCC 4698; details: Micrococcus luteus ATCC 4698 (organism code PP); BHI agar, 35-37 °C, 20 to 24 hours; unit assumed
Procedure: as §1, §2, §3

[6] = system: Haemophilis Influenzae DILL AMP R; details: Haemophilis Influenzae DILL AMP R (organism code WW); BHI agar, 35-37 °C, 20 to 24 hours; unit assumed
Procedure: as §1, §2, §3

[7] = system: Streptococcus agalactiae CMX 508; details: Streptococcus agalactiae CMX 508 (organism code KK); BHI agar, 35-37 °C, 20 to 24 hours; unit assumed
Procedure: as §1, §2, §3

Escherichia coli JUHL = Escherichia coli JUHL (organism code QQ); BHI agar, 35-37 °C, 20 to 24 hours; unit assumed
Procedure: as §1, §2, §3

[8] = system: Nocardia Asteroides ATCC9970; details: Nocardia Asteroides ATCC9970 (organism code VV); BHI agar, 35-37 °C, 20 to 24 hours; unit assumed
Procedure: as §1, §2, §3

[9] = system: Staphylococcus epidermidis 3519; details: Staphylococcus epidermidis 3519 (organism code HH); BHI agar, 35-37 °C, 20 to 24 hours; unit assumed
Procedure: as §1, §2, §3

[10] = system: Streptococcus Pheumoniae 5649; details: Streptococcus Pheumoniae 5649 (organism code ZZA); BHI agar, 35-37 °C, 20 to 24 hours; unit assumed
Procedure: as §1, §2, §3

[11] = system: Staphylococcus aureus 1775; details: Staphylococcus aureus 1775 (organism code GG); BHI agar, 35-37 °C, 20 to 24 hours; unit assumed
Procedure: as §1, §2, §3

[12] = system: Staphylococcus aureus NCTC10649M; details: Staphylococcus aureus NCTC10649M (organism code EE); BHI agar, 35-37 °C, 20 to 24 hours; unit assumed
Procedure: as §1, §2, §3

Escherichia coli SS = Escherichia coli SS (organism code RR); BHI agar, 35-37 °C, 20 to 24 hours; unit assumed
Procedure: as §1, §2, §3

[13] = system: Staphylococcus aureus A5177; details: Staphylococcus aureus A5177 (organism code BB); BHI agar, 35-37 °C, 20 to 24 hours; unit assumed
Procedure: as §1, §2, §3

[14] = system: Streptococcus pyogenes PIU 2548; details: Streptococcus pyogenes PIU 2548 (organism code NN); BHI agar, 35-37 °C, 20 to 24 hours; unit assumed
Procedure: as §1, §2, §3

[15] = system: Streptococcus Pheumoniae 5979; details: Streptococcus Pheumoniae 5979 (organism code ZZ); BHI agar, 35-37 °C, 20 to 24 hours; unit assumed
Procedure: as §1, §2, §3

Escherichia coli DC-2 = Escherichia coli DC-2 (organism code SS); BHI agar, 35-37 °C, 20 to 24 hours; unit assumed
Procedure: as §1, §2, §3

[16] = system: Streptococcus Pheumoniae GYR 1171; details: Streptococcus Pheumoniae GYR 1171 (organism code YY); BHI agar, 35-37 °C, 20 to 24 hours; unit assumed
Procedure: as §1, §2, §3

[17] = system: Staphylococcus aureus CMX 642A; details: Staphylococcus aureus CMX 642A (organism code DD); BHI agar, 35-37 °C, 20 to 24 hours; unit assumed
Procedure: as §1, §2, §3

[18] = system: Mycobacterium smegmatis ATCC 114; details: Mycobacterium smegmatis ATCC 114 (organism code UU); BHI agar, 35-37 °C, 20 to 24 hours; unit assumed
Procedure: as §1, §2, §3

[19] = system: Streptococcus bovis A-5169; details: Streptococcus bovis A-5169 (organism code JJ); BHI agar, 35-37 °C, 20 to 24 hours; unit assumed
Procedure: as §1, §2, §3

[20] = system: Enterococcus faecium ATCC 8043; details: Enterococcus faecium ATCC 8043 (organism code II); BHI agar, 35-37 °C, 20 to 24 hours; unit assumed
Procedure: as §1, §2, §3

[21] = system: Micrococcus luteus ATCC 9341; details: Micrococcus luteus ATCC 9341 (organism code OO); BHI agar, 35-37 °C, 20 to 24 hours; unit assumed
Procedure: as §1, §2, §3

[22] = system: Staphylococcus aureus ATCC 6538P; details: Staphylococcus aureus ATCC 6538P (organism code AA); BHI agar, 35-37 °C, 20 to 24 hours; unit assumed
Procedure: as §1, §2, §3

[23] = system: Streptococcus pyogenes 930; details: Streptococcus pyogenes 930 (organism code MM); BHI agar, 35-37 °C, 20 to 24 hours; unit assumed
Procedure: as §1, §2, §3

Structure (SMILES) | MIC [1] [µg/mL] | MIC [2] [µg/mL] | MIC (Candida albicans CCH 442) [µg/mL] | MIC [3] [µg/mL] | MIC [4] [µg/mL] | MIC [5] [µg/mL] | MIC [7] [µg/mL] | MIC (Escherichia coli JUHL) [µg/mL] | MIC [8] [µg/mL] | MIC [9] [µg/mL] | MIC [10] [µg/mL] | MIC [11] [µg/mL] | MIC [12] [µg/mL] | MIC (Escherichia coli SS) [µg/mL] | MIC [13] [µg/mL] | MIC [14] [µg/mL] | MIC [15] [µg/mL] | MIC (Escherichia coli DC-2) [µg/mL] | MIC [16] [µg/mL] | MIC [17] [µg/mL] | other results
CC[C@H]1OC(=O)[C@H](C)C(=O)[C@H](C)[C@@H](O[C@@H]2O[C@H](C)C[C@H](N(C)C(C)=O)[C@H]2O)[C@](C)(OCC=Cc2cnc3ccccc3c2)C[C@@H](C)C(=O)[C@H](C)[C@H]2NC(=O)O[C@@]21C [Example 4, Compound of Formula (II); R is -CH2CH=CH-(3-quinolyl), R^P is H, W is absent, R^w is H, R^1 is acetyl, R^2 is CH3-] | 6.2 | 0.39 | > 100 | 0.25 | > 100 | 3.1 | 0.39 | > 100 | 12.5 | 6.2 | 0.25 | > 100 | 6.2 | 100 | 6.2 | 1.56 | 128 | > 100 | 0.125 | 6.2 | MIC [6]: > 128 µg/mL; MIC [18]: 25 µg/mL; MIC [19]: 0.2 µg/mL; MIC [20]: 1.56 µg/mL; MIC [21]: 0.39 µg/mL; MIC [22]: 6.2 µg/mL
CC[C@H]1OC(=O)[C@H](C)C(=O)[C@H](C)[C@@H](O[C@@H]2O[C@H](C)C[C@H](N(C)C3CC3)[C@H]2O)[C@](C)(OCC=Cc2cnc3ccccc3c2)C[C@@H](C)C(=O)[C@H](C)[C@H]2NC(=O)O[C@@]21C [Example 13, Compound of Formula (II); R is -CH2CH=CH-(3-quinolyl), R^p is H, W is absent, R^w is H, R^1 is cyclopropyl, R^2 is CH3] | 1.56 | 0.1 | 50 | 0.03 | > 100 | 0.78 | 0.2 | > 100 | 3.1 | 3.1 | 0.25 | > 100 | 3.1 | 3.1 | 3.1 | 0.39 | 16 | > 100 | 0.03 | 1.56 | MIC [23]: > 100 µg/mL; MIC [18]: 3.1 µg/mL; MIC [19]: 0.2 µg/mL; MIC [20]: 0.39 µg/mL; MIC [21]: 0.39 µg/mL; MIC [22]: 1.56 µg/mL
CC[C@H]1OC(=O)[C@H](C)C(=O)[C@H](C)[C@@H](O[C@@H]2O[C@H](C)C[C@H](N(C)Cc3cccnc3)[C@H]2O)[C@](C)(OCC=Cc2cnc3ccccc3c2)C[C@@H](C)C(=O)[C@H](C)[C@H]2NC(=O)O[C@@]21C [Example 14, Compound of Formula (II); R is -CH2CH=CH-(3-quinolyl), R^p is H, W is absent, R^w is H, R^1 is CH2-(3-pyridyl), R^2 is CH3] | 0.39 | 0.05 | > 100 | 0.03 | > 100 | 0.39 | 0.2 | > 100 | 0.2 | 0.39 | 0.25 | > 100 | 0.39 | 0.78 | 0.39 | 0.39 | > 128 | > 100 | 0.03 | 0.39 | MIC [23]: 50 µg/mL; MIC [18]: 0.39 µg/mL; MIC [19]: 0.05 µg/mL; MIC [20]: 0.05 µg/mL; MIC [21]: 0.05 µg/mL; MIC [22]: 0.39 µg/mL
